26 compounds from ChEMBL document CHEMBL1156471, “Targeting host cell furin proprotein convertases as a therapeutic strategy against bacterial toxins and viral pathogens” (J Biol Chem, 2007) can be followed below.

The test has as its target Furin (Homo sapiens, UniProt P09958).

Non-standard residues stand in square brackets, D forms with d. Residues, ends and D or L forms follow the SMILES beside them. Sar = CNCC(=O)O

Chain of Furin (P09958 whole entry): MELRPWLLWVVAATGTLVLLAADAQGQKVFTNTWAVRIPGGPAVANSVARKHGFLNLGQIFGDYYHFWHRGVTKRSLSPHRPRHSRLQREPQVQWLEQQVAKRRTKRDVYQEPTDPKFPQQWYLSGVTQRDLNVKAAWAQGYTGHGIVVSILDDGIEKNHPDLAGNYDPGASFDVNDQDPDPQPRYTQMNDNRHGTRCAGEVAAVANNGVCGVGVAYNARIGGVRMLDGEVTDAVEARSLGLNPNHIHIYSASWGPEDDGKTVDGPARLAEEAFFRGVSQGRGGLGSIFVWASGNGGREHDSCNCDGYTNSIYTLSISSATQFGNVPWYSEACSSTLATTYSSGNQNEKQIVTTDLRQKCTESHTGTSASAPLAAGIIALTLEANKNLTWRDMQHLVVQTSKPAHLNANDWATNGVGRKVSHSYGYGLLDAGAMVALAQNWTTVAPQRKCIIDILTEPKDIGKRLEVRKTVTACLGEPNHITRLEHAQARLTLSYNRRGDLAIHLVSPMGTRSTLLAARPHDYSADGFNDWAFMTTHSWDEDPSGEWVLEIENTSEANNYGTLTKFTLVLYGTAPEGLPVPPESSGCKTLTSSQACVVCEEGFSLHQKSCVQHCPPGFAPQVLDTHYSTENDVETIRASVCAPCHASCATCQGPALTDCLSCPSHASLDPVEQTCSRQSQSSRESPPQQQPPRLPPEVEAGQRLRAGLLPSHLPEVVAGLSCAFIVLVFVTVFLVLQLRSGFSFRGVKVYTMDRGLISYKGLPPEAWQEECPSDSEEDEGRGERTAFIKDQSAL

In the case of `C[C@@H](O)[C@H](N)C(=O)N1CCC[C@H]1C(=O)N[C@@H](CCCNC(=N)N)C(=O)N[C@@H](CCC(=O)O)C(=O)N[C@@H](CCCNC(=N)N)C(=O)N[C@@H](CCCNC(=N)N)C(=O)N[C@@H](CCCNC(=N)N)C(=O)N[C@@H](CCCCN)C(=O)N[C@@H](CCCCN)C(=O)N[C@@H](CCCNC(=N)N)C(=O)NCC(=O)O`, the Ki – broadly, the equilibrium dissociation constant of an inhibitor or competing ligand from its target – is > 0.1 µM.
In the case of `CSCC[C@H](NC(=O)[C@H](CCCNC(=N)N)NC(=O)[C@H](CCCCN)NC(=O)[C@H](CCCCN)NC(=O)[C@H](CCCNC(=N)N)NC(=O)[C@H](CCCNC(=N)N)NC(=O)[C@H](CCCNC(=N)N)NC(=O)[C@H](C)NC(=O)[C@H](CCCNC(=N)N)NC(=O)[C@@H]1CCCN1C(=O)[C@@H](N)[C@@H](C)O)C(=O)O` it was > 0.1 µM; in that of `CSC[C@H](NC(=O)[C@H](CCCN=C(N)N)NC(=O)[C@H](CCCCN)NC(=O)[C@H](CCCCN)NC(=O)[C@H](CCCN=C(N)N)NC(=O)[C@H](CCCN=C(N)N)NC(=O)[C@H](CCCN=C(N)N)NC(=O)[C@H](C)NC(=O)[C@H](CCCN=C(N)N)NC(=O)[C@@H]1CCCN1C(=O)[C@@H](N)[C@@H](C)O)C(=O)O`, 0.065 µM; in that of `C[C@@H](O)[C@H](N)C(=O)N1CCC[C@H]1C(=O)N[C@@H](CCCNC(=N)N)C(=O)NCCCCCC(=O)N[C@@H](CCCNC(=N)N)C(=O)N[C@@H](CCCNC(=N)N)C(=O)N[C@@H](CCCNC(=N)N)C(=O)N[C@@H](CCCCN)C(=O)N[C@@H](CCCCN)C(=O)N[C@@H](CCCNC(=N)N)C(=O)NCC(=O)O`, > 0.1 µM.
In the case of `C[C@@H](O)[C@H](N)C(=O)N1CCC[C@H]1C(=O)N[C@@H](CCCNC(=N)N)C(=O)N[C@H](CCC(=O)O)C(=O)N[C@@H](CCCNC(=N)N)C(=O)N[C@@H](CCCNC(=N)N)C(=O)N[C@@H](CCCNC(=N)N)C(=O)N[C@@H](CCCCN)C(=O)N[C@@H](CCCCN)C(=O)N[C@@H](CCCNC(=N)N)C(=O)NCC(=O)O` it was > 0.1 µM.
The same measure for `CCCC[C@H](NC(=O)[C@H](CCCNC(=N)N)NC(=O)[C@H](CCCCN)NC(=O)[C@H](CCCCN)NC(=O)[C@H](CCCNC(=N)N)NC(=O)[C@H](CCCNC(=N)N)NC(=O)[C@H](CCCNC(=N)N)NC(=O)[C@H](C)NC(=O)[C@H](CCCNC(=N)N)NC(=O)[C@@H]1CCCN1C(=O)[C@@H](N)[C@@H](C)O)C(=O)O`: 0.081 µM; for `C[C@H](NC(=O)[C@H](CCCNC(=N)N)NC(=O)[C@@H]1CCCN1C(=O)[C@@H](N)[C@@H](C)O)C(=O)N[C@@H](CCCNC(=N)N)C(=O)N[C@@H](CCCNC(=N)N)C(=O)N[C@@H](CCCNC(=N)N)C(=O)N[C@@H](CCCCN)C(=O)N[C@@H](CCCCN)C(=O)N[C@@H](CCCNC(=N)N)C(=O)N[C@@H](CS)C(=O)O`: > 0.1 µM.
As to `C[C@@H](O)[C@H](N)C(=O)N1CCC[C@H]1C(=O)N[C@@H](CCCN=C(N)N)C(=O)N[C@@H](CCCNC(N)=O)C(=O)N[C@@H](CCCN=C(N)N)C(=O)N[C@@H](CCCN=C(N)N)C(=O)N[C@@H](CCCN=C(N)N)C(=O)N[C@@H](CCCCN)C(=O)N[C@@H](CCCCN)C(=O)N[C@@H](CCCN=C(N)N)C(=O)NCC(=O)O`, the Ki was > 0.1 µM.
The same measure for `C[C@H](NC(=O)[C@H](CCCNC(=N)N)NC(=O)[C@H](CCC(N)=O)NC(=O)[C@@H]1CCCN1C(=O)[C@@H](N)[C@@H](C)O)C(=O)N[C@@H](CCCNC(=N)N)C(=O)N[C@@H](CCCNC(=N)N)C(=O)N[C@@H](CCCNC(=N)N)C(=O)N[C@@H](CCCCN)C(=O)N[C@@H](CCCCN)C(=O)N[C@H](CCCNC(=N)N)C(=O)NCC(=O)O`: > 0.1 µM.
In the case of `C[C@@H](O)[C@H](N)C(=O)N1CCC[C@H]1C(=O)N[C@@H](CCC(N)=O)C(=O)N[C@@H](CCCNC(=N)N)C(=O)N[C@@H](CS)C(=O)N[C@@H](CCCNC(=N)N)C(=O)N[C@@H](CCCNC(=N)N)C(=O)N[C@@H](CCCNC(=N)N)C(=O)N[C@@H](CCCCN)C(=O)N[C@@H](CCCCN)C(=O)N[C@@H](CCCNC(=N)N)C(=O)NCC(=O)O` it was > 0.1 µM.
For the compound `C[C@@H](O)[C@H](N)C(=O)N1CCC[C@H]1C(=O)N[C@@H](CCCN=C(N)N)C(=O)NC1(C(=O)N[C@@H](CCCN=C(N)N)C(=O)N[C@@H](CCCN=C(N)N)C(=O)N[C@@H](CCCN=C(N)N)C(=O)N[C@@H](CCCCN)C(=O)N[C@@H](CCCCN)C(=O)N[C@@H](CCCN=C(N)N)C(=O)NCC(=O)O)CCCC1`, the inhibition constant (Ki) is > 0.1 µM.
In the case of `C[C@@H](O)[C@H](N)C(=O)N1CCC[C@H]1C(=O)N[C@@H](CCCN=C(N)N)C(=O)N[C@@H](CCCCN)C(=O)N[C@@H](CCCN=C(N)N)C(=O)N[C@@H](CCCN=C(N)N)C(=O)N[C@@H](CCCN=C(N)N)C(=O)N[C@@H](CCCCN)C(=O)N[C@@H](CCCCN)C(=O)N[C@@H](CCCN=C(N)N)C(=O)NCC(=O)O`, the inhibition constant Ki was > 0.1 µM.
In the case of `C[C@@H](O)[C@H](N)C(=O)N1CCC[C@H]1C(=O)N[C@@H](CCC(N)=O)C(=O)N[C@@H](CCCNC(=N)N)C(=O)N[C@@H](CCC(=O)O)C(=O)N[C@@H](CCCNC(=N)N)C(=O)N[C@@H](CCCNC(=N)N)C(=O)N[C@@H](CCCNC(=N)N)C(=O)N[C@@H](CCCCN)C(=O)N[C@@H](CCCCN)C(=O)N[C@@H](CCCNC(=N)N)C(=O)NCC(=O)O` it was > 0.1 µM; in that of `C[C@@H](O)[C@H](N)C(=O)N1CCC[C@H]1C(=O)N[C@@H](CCCNC(=N)N)C(=O)N[C@H](CCCCN)C(=O)N[C@@H](CCCNC(=N)N)C(=O)N[C@@H](CCCNC(=N)N)C(=O)N[C@@H](CCCNC(=N)N)C(=O)N[C@@H](CCCCN)C(=O)N[C@@H](CCCCN)C(=O)N[C@@H](CCCNC(=N)N)C(=O)NCC(=O)O`, > 0.1 µM.
The same measure for `C[C@@H](O)[C@H](N)C(=O)N1CCC[C@H]1C(=O)N[C@@H](CCC(N)=O)C(=O)N[C@@H](CCCN=C(N)N)C(=O)N[C@@H](CCCCN)C(=O)N[C@@H](CCCN=C(N)N)C(=O)N[C@@H](CCCN=C(N)N)C(=O)N[C@@H](CCCN=C(N)N)C(=O)N[C@@H](CCCCN)C(=O)N[C@@H](CCCCN)C(=O)N[C@@H](CCCNC(=N)N)C(=O)NCC(=O)O`: > 0.1 µM.
In the case of `CC(C)C[C@H](NC(=O)[C@H](CCCN=C(N)N)NC(=O)[C@H](CCCCN)NC(=O)[C@H](CCCCN)NC(=O)[C@H](CCCN=C(N)N)NC(=O)[C@H](CCCN=C(N)N)NC(=O)[C@H](CCCN=C(N)N)NC(=O)[C@H](C)NC(=O)[C@H](CCCN=C(N)N)NC(=O)[C@@H]1CCCN1C(=O)[C@@H](N)[C@@H](C)O)C(=O)O` it was > 0.1 µM; in that of `C[C@@H](O)[C@H](N)C(=O)N1CCC[C@H]1C(=O)N[C@@H](CCCNC(=N)N)C(=O)NCCC(=O)N[C@@H](CCCNC(=N)N)C(=O)N[C@@H](CCCNC(=N)N)C(=O)N[C@@H](CCCNC(=N)N)C(=O)N[C@@H](CCCCN)C(=O)N[C@@H](CCCCN)C(=O)N[C@@H](CCCNC(=N)N)C(=O)NCC(=O)O`, > 0.1 µM.
With `C[C@H](NC(=O)[C@H](CCCNC(=N)N)NC(=O)[C@H](CCC(N)=O)NC(=O)[C@@H]1CCCN1C(=O)[C@@H](N)[C@@H](C)O)C(=O)N[C@@H](CCCNC(=N)N)C(=O)N[C@@H](CCCNC(=N)N)C(=O)N[C@@H](CCCNC(=N)N)C(=O)N[C@@H](CCCCN)C(=O)N[C@@H](CCCCN)C(=O)N[C@H](CCCCN)C(=O)NCC(=O)O`, the Ki was > 0.1 µM.
Regarding `C[C@H](NC(=O)[C@H](CCCN=C(N)N)NC(=O)[C@H](CCC(N)=O)NC(=O)[C@@H]1CCCN1C(=O)[C@@H](N)[C@@H](C)O)C(=O)N[C@@H](CCCN=C(N)N)C(=O)N[C@@H](CCCN=C(N)N)C(=O)N[C@@H](CCCN=C(N)N)C(=O)N[C@@H](CCCCN)C(=O)N[C@@H](CCCCN)C(=O)N[C@@H](CCCNC(N)=O)C(=O)NCC(=O)O`, the inhibition constant (Ki) was > 0.1 µM.
Regarding `C[C@H](N)C(=O)N[C@@H](C)C(=O)N[C@@H](C)C(=O)N[C@@H](CCC(=O)O)C(=O)N[C@@H](CCCNC(=N)N)C(=O)N[C@@H](CCCNC(=N)N)C(=O)N[C@@H](CCCNC(=N)N)C(=O)N[C@@H](CCCCN)C(=O)N[C@@H](CCCCN)C(=O)N[C@@H](CCCNC(=N)N)C(=O)N(C)CC(=O)O` (H-AAAERRRKKR[Sar]-OH), the Ki was > 0.1 µM.
In the case of `C[C@H](N)C(=O)N[C@@H](C)C(=O)N[C@@H](CCCN=C(N)N)C(=O)N[C@@H](CCC(=O)O)C(=O)N[C@@H](CCCN=C(N)N)C(=O)N[C@@H](CCCN=C(N)N)C(=O)N[C@@H](CCCN=C(N)N)C(=O)N[C@@H](CCCCN)C(=O)N[C@@H](CCCCN)C(=O)N[C@@H](CCCN=C(N)N)C(=O)N(C)CC(=O)O` (H-AARERRRKKR[Sar]-OH) it was > 0.1 µM; in that of `C[C@H](N)C(=O)N1CCC[C@H]1C(=O)N[C@@H](CCCNC(=N)N)C(=O)N[C@@H](CCC(=O)O)C(=O)N[C@@H](CCCNC(=N)N)C(=O)N[C@@H](CCCNC(=N)N)C(=O)N[C@@H](CCCNC(=N)N)C(=O)N[C@@H](CCCCN)C(=O)N[C@@H](CCCCN)C(=O)N[C@@H](CCCNC(=N)N)C(=O)N(C)CC(=O)O` (H-APRERRRKKR[Sar]-OH), > 0.1 µM; in that of `C[C@H](NC(=O)[C@H](C)NC(=O)[C@@H](N)[C@@H](C)O)C(=O)N[C@@H](CCC(=O)O)C(=O)N[C@@H](CCCNC(=N)N)C(=O)N[C@@H](CCCNC(=N)N)C(=O)N[C@@H](CCCNC(=N)N)C(=O)N[C@@H](CCCCN)C(=O)N[C@@H](CCCCN)C(=O)N[C@@H](CCCNC(=N)N)C(=O)N(C)CC(=O)O` (H-TAAERRRKKR[Sar]-OH), > 0.1 µM.
The same measure for `C[C@H](NC(=O)[C@@H](N)[C@@H](C)O)C(=O)N[C@@H](CCCNC(=N)N)C(=O)N[C@@H](CCC(=O)O)C(=O)N[C@@H](CCCNC(=N)N)C(=O)N[C@@H](CCCNC(=N)N)C(=O)N[C@@H](CCCNC(=N)N)C(=O)N[C@@H](CCCCN)C(=O)N[C@@H](CCCCN)C(=O)N[C@@H](CCCNC(=N)N)C(=O)N(C)CC(=O)O` (H-TARERRRKKR[Sar]-OH): > 0.1 µM; for `C[C@H](NC(=O)[C@H](C)NC(=O)[C@@H]1CCCN1C(=O)[C@@H](N)[C@@H](C)O)C(=O)N[C@@H](C)C(=O)N[C@@H](CCCNC(=N)N)C(=O)N[C@@H](CCCNC(=N)N)C(=O)N[C@@H](CCCCN)C(=O)N[C@@H](CCCCN)C(=O)N[C@@H](CCCNC(=N)N)C(=O)N(C)CC(=O)O` (H-TPAAARRKKR[Sar]-OH): > 0.1 µM; for `C[C@H](NC(=O)[C@H](C)NC(=O)[C@@H]1CCCN1C(=O)[C@@H](N)[C@@H](C)O)C(=O)N[C@@H](CCCN=C(N)N)C(=O)N[C@@H](CCCN=C(N)N)C(=O)N[C@@H](CCCN=C(N)N)C(=O)N[C@@H](CCCCN)C(=O)N[C@@H](CCCCN)C(=O)N[C@@H](CCCN=C(N)N)C(=O)N(C)CC(=O)O` (H-TPAARRRKKR[Sar]-OH): > 0.1 µM.
